Data published in ChEMBL document CHEMBL3991601, “The target landscape of clinical kinase drugs” (Science, 2017).
The source made the active and inactive calls. Rule as the data show it, for most assays here: actives have a measured Kd and inactives only a lower limit.

Key:
[1] = target: T1, EKC/KEOPS complex subunit TP53RK (Homo sapiens, UniProt Q96S44)
T1 sequence (Q96S44 whole entry): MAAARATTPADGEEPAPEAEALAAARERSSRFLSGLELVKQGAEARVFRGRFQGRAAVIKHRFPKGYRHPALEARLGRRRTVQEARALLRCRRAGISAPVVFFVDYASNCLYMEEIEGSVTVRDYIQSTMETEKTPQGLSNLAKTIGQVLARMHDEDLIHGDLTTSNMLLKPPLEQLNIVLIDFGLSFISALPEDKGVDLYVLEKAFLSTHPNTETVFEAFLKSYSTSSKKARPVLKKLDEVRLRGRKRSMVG

[2] = target: T2, Serine/threonine-protein kinase D2 (Homo sapiens, UniProt Q9BZL6)
T2 sequence (Q9BZL6 whole entry): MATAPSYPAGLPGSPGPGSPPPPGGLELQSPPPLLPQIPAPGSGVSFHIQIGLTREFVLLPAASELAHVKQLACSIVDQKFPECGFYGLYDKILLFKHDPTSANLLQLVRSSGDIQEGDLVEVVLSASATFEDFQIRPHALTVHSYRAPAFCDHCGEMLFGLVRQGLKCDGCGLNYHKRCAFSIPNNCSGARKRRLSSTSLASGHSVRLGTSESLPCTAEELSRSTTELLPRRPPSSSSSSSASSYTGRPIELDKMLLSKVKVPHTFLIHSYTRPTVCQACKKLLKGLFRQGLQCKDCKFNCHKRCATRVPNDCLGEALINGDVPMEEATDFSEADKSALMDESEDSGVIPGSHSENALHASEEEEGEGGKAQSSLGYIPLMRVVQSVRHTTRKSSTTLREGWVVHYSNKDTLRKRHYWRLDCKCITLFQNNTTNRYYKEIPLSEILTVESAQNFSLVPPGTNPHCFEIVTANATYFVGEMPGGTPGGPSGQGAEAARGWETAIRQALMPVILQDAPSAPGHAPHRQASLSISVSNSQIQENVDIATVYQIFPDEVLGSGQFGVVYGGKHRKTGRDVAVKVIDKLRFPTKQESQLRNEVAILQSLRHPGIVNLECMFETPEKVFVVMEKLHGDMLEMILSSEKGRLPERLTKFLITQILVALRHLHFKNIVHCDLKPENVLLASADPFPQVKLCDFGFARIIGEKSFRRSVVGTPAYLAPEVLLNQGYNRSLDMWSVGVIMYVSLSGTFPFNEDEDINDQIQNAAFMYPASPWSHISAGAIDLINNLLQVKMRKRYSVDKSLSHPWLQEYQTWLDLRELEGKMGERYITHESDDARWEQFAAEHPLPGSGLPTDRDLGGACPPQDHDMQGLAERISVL

Obg-like ATPase 1 = Obg-like ATPase 1 (Homo sapiens, UniProt Q9NTK5)
Sequence of Obg-like ATPase 1 (Q9NTK5 whole entry, looked up): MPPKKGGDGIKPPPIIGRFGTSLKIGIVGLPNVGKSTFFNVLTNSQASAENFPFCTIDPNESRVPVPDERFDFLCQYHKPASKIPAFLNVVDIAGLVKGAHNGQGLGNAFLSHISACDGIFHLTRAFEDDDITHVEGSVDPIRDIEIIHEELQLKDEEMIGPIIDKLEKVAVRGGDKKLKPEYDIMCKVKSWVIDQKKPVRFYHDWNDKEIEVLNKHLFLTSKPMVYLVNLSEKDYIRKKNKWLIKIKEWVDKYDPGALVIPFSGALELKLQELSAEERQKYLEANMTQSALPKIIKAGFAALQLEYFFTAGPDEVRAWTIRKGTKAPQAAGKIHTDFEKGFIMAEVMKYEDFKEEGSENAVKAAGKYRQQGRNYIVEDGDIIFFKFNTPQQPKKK

[3] = target: T3, ATP-dependent RNA helicase DDX1 (Homo sapiens, UniProt Q92499)
T3 sequence (Q92499 whole entry): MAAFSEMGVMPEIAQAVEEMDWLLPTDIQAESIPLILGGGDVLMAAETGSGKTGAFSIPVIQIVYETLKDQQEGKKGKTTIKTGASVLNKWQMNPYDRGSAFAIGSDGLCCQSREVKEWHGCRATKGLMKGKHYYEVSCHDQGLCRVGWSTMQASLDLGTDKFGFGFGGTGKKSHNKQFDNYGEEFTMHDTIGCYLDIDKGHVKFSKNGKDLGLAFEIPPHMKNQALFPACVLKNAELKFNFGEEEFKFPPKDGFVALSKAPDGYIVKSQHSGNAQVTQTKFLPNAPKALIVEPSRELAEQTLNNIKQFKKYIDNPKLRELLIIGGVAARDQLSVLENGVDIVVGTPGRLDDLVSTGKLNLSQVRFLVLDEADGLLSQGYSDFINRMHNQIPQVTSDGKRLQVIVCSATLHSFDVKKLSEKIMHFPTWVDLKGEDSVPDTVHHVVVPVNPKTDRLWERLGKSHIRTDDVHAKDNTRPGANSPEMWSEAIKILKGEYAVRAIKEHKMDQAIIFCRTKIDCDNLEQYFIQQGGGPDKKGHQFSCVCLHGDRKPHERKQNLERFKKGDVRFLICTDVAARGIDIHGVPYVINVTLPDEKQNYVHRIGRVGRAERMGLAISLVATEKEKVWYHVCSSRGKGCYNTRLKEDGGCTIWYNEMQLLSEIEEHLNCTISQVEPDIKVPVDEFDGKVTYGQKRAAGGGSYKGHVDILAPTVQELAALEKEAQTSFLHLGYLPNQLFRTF

[4] = target: Eukaryotic translation initiation factor 2-alpha kinase 1 (Homo sapiens, UniProt Q9BQI3)
Sequence of Eukaryotic translation initiation factor 2-alpha kinase 1 (Q9BQI3 whole entry): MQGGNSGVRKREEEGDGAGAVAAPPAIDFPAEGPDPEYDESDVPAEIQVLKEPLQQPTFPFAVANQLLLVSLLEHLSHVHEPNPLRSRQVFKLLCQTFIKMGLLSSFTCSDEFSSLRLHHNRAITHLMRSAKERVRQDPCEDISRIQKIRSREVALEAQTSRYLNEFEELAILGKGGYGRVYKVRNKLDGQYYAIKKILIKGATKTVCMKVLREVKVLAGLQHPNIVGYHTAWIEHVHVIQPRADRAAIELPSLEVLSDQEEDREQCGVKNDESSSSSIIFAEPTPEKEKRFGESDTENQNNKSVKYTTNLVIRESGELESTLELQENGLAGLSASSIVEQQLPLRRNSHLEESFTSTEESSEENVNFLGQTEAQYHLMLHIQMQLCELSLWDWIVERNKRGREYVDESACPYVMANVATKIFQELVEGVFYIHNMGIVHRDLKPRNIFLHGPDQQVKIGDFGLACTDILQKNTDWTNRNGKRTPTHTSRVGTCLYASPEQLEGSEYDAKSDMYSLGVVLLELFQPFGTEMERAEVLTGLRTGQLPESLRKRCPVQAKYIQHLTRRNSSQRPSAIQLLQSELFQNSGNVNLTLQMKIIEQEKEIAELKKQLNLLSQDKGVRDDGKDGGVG

Ephrin type-B receptor 6 = target: T4, Ephrin type-B receptor 6 (Homo sapiens, UniProt O15197)
T4 sequence (O15197 whole entry): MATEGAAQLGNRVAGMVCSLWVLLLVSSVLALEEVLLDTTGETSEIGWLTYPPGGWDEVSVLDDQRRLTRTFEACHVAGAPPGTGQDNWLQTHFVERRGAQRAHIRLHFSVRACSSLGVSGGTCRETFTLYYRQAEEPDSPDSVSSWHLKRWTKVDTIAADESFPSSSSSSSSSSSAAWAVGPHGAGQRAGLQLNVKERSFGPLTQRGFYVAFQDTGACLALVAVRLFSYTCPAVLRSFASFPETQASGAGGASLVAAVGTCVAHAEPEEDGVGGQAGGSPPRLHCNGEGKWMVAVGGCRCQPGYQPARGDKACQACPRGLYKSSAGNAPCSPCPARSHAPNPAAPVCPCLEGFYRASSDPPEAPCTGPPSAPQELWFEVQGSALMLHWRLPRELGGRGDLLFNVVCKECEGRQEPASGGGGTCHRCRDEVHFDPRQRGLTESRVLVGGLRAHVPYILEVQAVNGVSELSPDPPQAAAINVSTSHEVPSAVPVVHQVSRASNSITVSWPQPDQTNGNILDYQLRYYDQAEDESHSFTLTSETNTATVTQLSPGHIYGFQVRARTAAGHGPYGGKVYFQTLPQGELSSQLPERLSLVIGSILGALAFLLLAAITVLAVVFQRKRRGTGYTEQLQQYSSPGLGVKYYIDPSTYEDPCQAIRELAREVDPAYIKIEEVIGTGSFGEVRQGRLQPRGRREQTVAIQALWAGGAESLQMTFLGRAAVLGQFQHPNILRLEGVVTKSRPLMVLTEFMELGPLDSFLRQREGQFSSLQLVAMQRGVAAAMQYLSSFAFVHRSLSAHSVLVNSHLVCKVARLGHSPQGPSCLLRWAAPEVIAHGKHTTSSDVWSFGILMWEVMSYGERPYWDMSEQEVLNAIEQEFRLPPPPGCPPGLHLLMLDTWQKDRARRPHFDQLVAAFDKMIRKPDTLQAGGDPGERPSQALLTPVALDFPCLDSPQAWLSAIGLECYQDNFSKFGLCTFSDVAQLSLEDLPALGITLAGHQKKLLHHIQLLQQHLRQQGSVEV
Also: in the data inactive means no Kd found up to 30 µM.

Row | Structure (SMILES) | Kd [1] | Kd [2] | Kd (Obg-like ATPase 1) | Kd [3] | Kd [4] | Kd (Ephrin type-B receptor 6)
1 | CC(=O)c1cnc2ccc(-c3cc(Cl)c(O)c(Cl)c3)nc2c1N[C@H]1CC[C@H](CN(C)C)CC1 | 0.311 µM (active) | 0.069 µM (active) | > 30 µM (inactive) | > 30 µM (inactive) | > 30 µM (inactive) | 0.521 µM (active)
2 | CCNC(=O)C#Cc1ccc2c(c1)NC(=O)/C2=C(\Nc1ccc(CN(C)C)cc1)c1ccccc1 | > 30 µM (inactive) | > 30 µM (inactive) | > 30 µM (inactive) | > 30 µM (inactive) | > 30 µM (inactive) | > 30 µM (inactive)
3 | C=CC(=O)N1CCC[C@H](n2c(=O)n(-c3ccc(Oc4ccccc4)cc3)c3c(N)ncnc32)C1 | > 30 µM (inactive) | > 30 µM (inactive) | > 30 µM (inactive) | > 30 µM (inactive) | > 30 µM (inactive) | > 30 µM (inactive)
4 | Cc1nc2cc(-c3nn(C(C)C)c4ncnc(N)c34)ccc2o1 | > 30 µM (inactive) | > 30 µM (inactive) | > 30 µM (inactive) | > 30 µM (inactive) | > 30 µM (inactive) | > 30 µM (inactive)
5 | COCc1c(-c2ccc(NC(=O)Nc3cc(C(F)(F)F)ccc3F)c(F)c2)c2c(N)ncnn2c1CN1CCOCC1 | > 30 µM (inactive) | > 30 µM (inactive) | > 30 µM (inactive) | > 30 µM (inactive) | > 30 µM (inactive) | > 30 µM (inactive)
6 | Cc1nc(NC(=O)N2CCC[C@H]2C(N)=O)sc1-c1ccnc(C(C)(C)C(F)(F)F)c1 [ALPELISIB] | > 30 µM (inactive) | > 30 µM (inactive) | > 30 µM (inactive) | > 30 µM (inactive) | > 30 µM (inactive) | > 30 µM (inactive)
7 | C=CC(=O)Nc1cc2c(Nc3ccc(F)c(Cl)c3)ncnc2cc1C#CC(C)(C)N1CCN(C)CC1 [AV-412 FREE BASE] | > 30 µM (inactive) | > 30 µM (inactive) | > 30 µM (inactive) | > 30 µM (inactive) | > 30 µM (inactive) | > 30 µM (inactive)
8 | COc1cc([C@@H]2c3cc4c(cc3[C@H](O)[C@H]3COC(=O)[C@@H]23)OCO4)cc(OC)c1OC [AXL-1717] | > 30 µM (inactive) | > 30 µM (inactive) | > 30 µM (inactive) | > 30 µM (inactive) | > 30 µM (inactive) | > 30 µM (inactive)
9 | NC(=O)Nc1cc(-c2cccc(F)c2)sc1C(=O)N[C@H]1CCCNC1 [AZD-7762] | > 30 µM (inactive) | 1.16 µM (active) | > 30 µM (inactive) | > 30 µM (inactive) | > 30 µM (inactive) | –
10 | Cn1cnc2c(F)c(Nc3ccc(Br)cc3F)c(C(=O)NOCCO)cc21 [BINIMETINIB] | > 30 µM (inactive) | > 30 µM (inactive) | > 30 µM (inactive) | > 30 µM (inactive) | > 30 µM (inactive) | > 30 µM (inactive)
11 | COc1c(OCCCN2CCOCC2)ccc2c1N=C(NC(=O)c1cnc(N)nc1)N1CCN=C21 [COPANLISIB] | > 30 µM (inactive) | > 30 µM (inactive) | > 30 µM (inactive) | > 30 µM (inactive) | > 30 µM (inactive) | > 30 µM (inactive)
12 | COCC(=O)NC/C=C/c1ccc2ncnc(Nc3ccc(Oc4ccc(C)nc4)c(C)c3)c2c1 [CP-724714] | > 30 µM (inactive) | > 30 µM (inactive) | > 30 µM (inactive) | > 30 µM (inactive) | > 30 µM (inactive) | > 30 µM (inactive)
13 | CC(C)(C)c1nc(-c2cccc(NS(=O)(=O)c3c(F)cccc3F)c2F)c(-c2ccnc(N)n2)s1 [DABRAFENIB] | > 30 µM (inactive) | 0.034 µM (active) | > 30 µM (inactive) | > 30 µM (inactive) | – | 0.412 µM (active)
14 | CNC(=O)c1cc(Oc2ccc(NC(=O)Nc3cc(C(C)(C)C)nn3-c3ccc4ncccc4c3)c(F)c2)ccn1 [REBASTINIB] | > 30 µM (inactive) | > 30 µM (inactive) | > 30 µM (inactive) | > 30 µM (inactive) | – | > 30 µM (inactive)
15 | Cn1ncc(Cl)c1-c1cc(C(=O)N[C@H](CN)Cc2ccc(F)c(F)c2)oc1Cl [UPROSERTIB] | > 30 µM (inactive) | – | > 30 µM (inactive) | > 30 µM (inactive) | > 30 µM (inactive) | > 30 µM (inactive)

The next lines start with the values.

Row | Kd [1] | Kd [2] | Kd (Obg-like ATPase 1) | Kd [3] | Kd [4] | Kd (Ephrin type-B receptor 6) | Structure (SMILES)
16 | > 30 µM (inactive) | 5.67 µM (active) | > 30 µM (inactive) | > 30 µM (inactive) | > 30 µM (inactive) | > 30 µM (inactive) | Cc1csc(-c2nnc(Nc3ccc(Oc4ncccc4-c4ccnc(N)n4)cc3)c3ccccc23)c1 [AMG-900]
17 | > 30 µM (inactive) | > 30 µM (inactive) | > 30 µM (inactive) | > 30 µM (inactive) | 1.82 µM | > 30 µM (inactive) | Cc1cc(C(=O)NOCCO)c(Nc2ccc(I)cc2F)n(C)c1=O [AZD-8330]
18 | > 30 µM (inactive) | > 30 µM (inactive) | > 30 µM (inactive) | > 30 µM (inactive) | > 30 µM (inactive) | > 30 µM (inactive) | CCn1c(C(=O)N(C2CC2)C2CC2)cc2c3c(ncn3C)c(Nc3cc(C)n(C)n3)nc21 [BMS-911543]
19 | > 30 µM (inactive) | > 30 µM (inactive) | > 30 µM (inactive) | > 30 µM (inactive) | > 30 µM (inactive) | > 30 µM (inactive) | COc1cc2ncnc(Oc3cccc(NC(=O)Nc4cc(C(C)(C)C(F)(F)F)on4)c3)c2cc1OC [CEP-32496]
20 | > 30 µM (inactive) | – | > 30 µM (inactive) | > 30 µM (inactive) | > 30 µM (inactive) | > 30 µM (inactive) | CC(=O)NCC(=O)N1[C@@H]2CC[C@H]1c1ccc(Nc3ncc(C(F)(F)F)c(NC4CCC4)n3)cc12 [PF-03814735]
